Data: patent publication US6136814A (priority 1997, dated 2000)
Several values for one entry are separate records, joined by “and”; a condition that tells them apart may be missing. Equal entries are not always repeated.

Assays:
[1] = calculated pH over time, 10 mL vial, normal atmospheric storage (Example 7)
Method: (§1) The atmospheric CO2 content, measured using a Dickson, Model CO2 X carbon dioxide recorder, was measured as 0.07% by volume and this value was used in the calculation.

[2] = aqueous solubility; assay type: physicochemical; conditions: water, determined experimentally
[3] = calculated pH over time, 20 mL vial, normal atmospheric storage (Example 8)
Method: as §1

[4] = pH stability of aqueous acyclovir sodium under accelerated CO2 permeation conditions (Example 2); assay type: physicochemical; conditions: after 3 weeks
Source text: The solution was transferred, under a nitrogen atmosphere, to autoclaved filling equipment contained within a laminar air-flow hood to avoid particle and microbiological contamination. […] The filtered bulk solution and containers were purged with nitrogen during the filling process to avoid CO2 absorption. The process was repeated for polyethylene terephthalate vials and Daikyo Resin CZ vials (sold by Daikyo Gomu Seiko, Ltd, reported in some references as polymethylpentene).
The samples were tested under accelerated CO2 storage conditions. The samples were placed in three different chambers with elevated CO2 atmospheres, maintained at a concentration of approximately 2%, 5%, and 10% CO2 by volume, for 3 weeks. The pH was measured at various times using a calibrated standard pH meter.

[5] = pH at which precipitation or haziness is observed; assay type: physicochemical
Source text: As indicated earlier, the pH of aqueous acyclovir sodium must be maintained above the pHp to avoid the formation of precipitates.

[6] = effect of CO2 on pH of aqueous acyclovir solution under accelerated conditions (Example 6); assay type: physicochemical
Method: The desiccators were evacuated and filled with the CO2 standards three consecutive times at the beginning of the experiment, and the filling process was repeated each week and each time the desiccators were opened for removing samples. The pressure in the desiccators was maintained at 1 atm. The pH was measured at various time intervals.

[7] = measured pH drop over 21 months under normal atmospheric conditions (Example 9); assay type: physicochemical
Method: For each vial, one half was stored in the upright position and the other half was stored in the inverted position. The pH was measured over time using a standard calibrated pH meter.

[8] = compatibility with container and seal materials, pH on storage (Example 3); assay type: physicochemical; conditions: polypropylene vials, RT and 40° C., three months
Method: At various time intervals, the samples were tested for pH. The pH was measured using a calibrated standard pH meter.

[9] = depending on the desired concentration; cited from earlier work
[10] = cited from earlier work
[11] = effect of CO2 on pH of unbuffered aqueous sodium hydroxide in polypropylene vials (Example 1); assay type: physicochemical
Source text: This example represents the effect of CO2 on the pH of an unbuffered aqueous sodium hydroxide solution. […] The solution was placed in a series of identical polypropylene vials which were sealed and separated into two groups (Groups A and B). The vials were identical in every relevant parameter, including average wall thickness, surface area, and stoppers. The sodium hydroxide solution in all samples were taken from the same lot and each vial was filled under identical filling conditions. Samples in group A were stored under normal atmospheric conditions. Samples in group B were placed in a 5.8 L desiccator along with a beaker containing 50 mL of 1N aq. HCl (0.05 moles HCl). After carefully adding 100 mL of 0.5M NaHCO3 (0.05 moles NaHCO3) to the HCl solution, the desiccator was immediately sealed to prevent escape of the resulting CO2 (approximately 0.05 moles CO2). The calculated concentration of CO2 in the chamber was approximately 18% by volume. The samples were allowed to stand for 3 weeks under the aforesaid conditions. The pH of the samples in the containers was measured using a calibrated standard pH meter.

Nc1nc2c(ncn2COCCO)c(=O)[nH]1 [acyclovir sodium]
shelf life [1]: greater than 24 months | solubility [2]: 644 mg/mL | shelf life [3]: greater than 24 months | precipitate ([4]; 2%, 5% and 10% CO2): no precipitate was observed | pH decline ([4]; 5% CO2): 0.33 pH units | pH decline ([4]; 10% CO2): 0.48 pH units | pH at which precipitation becomes apparent ([5]; 54.9 mg/mL aqueous solution, actual observations): < 10.8 | pH below which haziness is observed ([5]; about 55 mg/mL acyclovir sodium): < 10.8 | initial pH in the absence of CO2 ([6]; 54.9 mg/mL, with purging headspace): 11.3 | Measured pH ([6]; 2.00% CO2, 10 mL vials, 14 days): 11.10 | Measured pH ([6]; 2.00% CO2, 10 mL vials, 16 days): 11.08 | Measured pH ([6]; 2.00% CO2, 10 mL vials, 20 days): 11.03 | Measured pH ([6]; 2.00% CO2, 10 mL vials, 23 days): 11.03 | Measured pH ([6]; 2.00% CO2, 10 mL vials, 27 days): 11.01 | Measured pH ([6]; 2.00% CO2, 20 mL vials, 14 days): 11.12 | Measured pH ([6]; 2.00% CO2, 20 mL vials, 16 days): 11.10 | Measured pH ([6]; 2.00% CO2, 20 mL vials, 20 days): 11.07 | Measured pH ([6]; 2.00% CO2, 20 mL vials, 23 days): 11.05 | Measured pH ([6]; 2.00% CO2, 20 mL vials, 27 days): 11.02 | Measured pH ([6]; 10.1% CO2, 10 mL vials, 6 days): 10.94 | Measured pH ([6]; 10.1% CO2, 10 mL vials, 9 days): 10.87 | Measured pH ([6]; 10.1% CO2, 10 mL vials, 14 days): 10.70 | Measured pH ([6]; 10.1% CO2, 20 mL vials, 6 days): 10.97 | Measured pH ([6]; 10.1% CO2, 20 mL vials, 9 days): 10.90 | Measured pH ([6]; 10.1% CO2, 20 mL vials, 14 days): 10.74 | precipitates ([7]; after 21 months): no precipitates were detected | acceptable for parenteral administration ([7]; normal atmospheric conditions, upright or inverted): at least 21 months | shelf life ([7]; real time, normal atmospheric conditions): at least 21 months | precipitation upon visual inspection [8]: no precipitation was observed | impurities by HPLC ([8]; Teflon coated stoppers): no significant impurities were generated

Nc1nc2c(ncn2COCCO)c(=O)[nH]1 [acyclovir, 2-amino-1,9-dihydro-9-[(2-hydroxy-ethoxy)methyl]-6H-purin-6-one]
pH required to maintain an aqueous solution [9]: 10-11 | water solubility, neutral form ([10]; undissociated acyclovir, in words): virtually insoluble in water | aqueous solubility, neutral form ([10]; water, ambient temperature, Pharm. Res., vol. 8, p. 1087 (1991)): 6.2 mM and ~6.2 mM

[Na+].[OH-] [sodium hydroxide]
pH ([11]; Group A normal atmosphere, 1 week): 11.22 | pH ([11]; Group A normal atmosphere, 3 weeks): 11.21 | pH ([11]; Group A normal atmosphere, initial): 11.31 | pH ([11]; Group B CO2 chamber (approx. 18% CO2 by vol.), 3 weeks): 6.37 | pH ([11]; Group B CO2 chamber (approx. 18% CO2 by vol.), initial): 11.31
